# Like-named read-outs stand apart in the source and are kept apart here.
# Legend:
# [1] = test system: osteoclast Ca^2+ receptor; experiment: [Ca2+]i (indo-1) in single rat osteoclasts; format: cell-based
# [2] = biological target: T1, parathyroid cell Ca^2+ receptor (Bos taurus, UniProt P35384); format: cell-based, bovine
# T1 sequence (P35384 20-1085): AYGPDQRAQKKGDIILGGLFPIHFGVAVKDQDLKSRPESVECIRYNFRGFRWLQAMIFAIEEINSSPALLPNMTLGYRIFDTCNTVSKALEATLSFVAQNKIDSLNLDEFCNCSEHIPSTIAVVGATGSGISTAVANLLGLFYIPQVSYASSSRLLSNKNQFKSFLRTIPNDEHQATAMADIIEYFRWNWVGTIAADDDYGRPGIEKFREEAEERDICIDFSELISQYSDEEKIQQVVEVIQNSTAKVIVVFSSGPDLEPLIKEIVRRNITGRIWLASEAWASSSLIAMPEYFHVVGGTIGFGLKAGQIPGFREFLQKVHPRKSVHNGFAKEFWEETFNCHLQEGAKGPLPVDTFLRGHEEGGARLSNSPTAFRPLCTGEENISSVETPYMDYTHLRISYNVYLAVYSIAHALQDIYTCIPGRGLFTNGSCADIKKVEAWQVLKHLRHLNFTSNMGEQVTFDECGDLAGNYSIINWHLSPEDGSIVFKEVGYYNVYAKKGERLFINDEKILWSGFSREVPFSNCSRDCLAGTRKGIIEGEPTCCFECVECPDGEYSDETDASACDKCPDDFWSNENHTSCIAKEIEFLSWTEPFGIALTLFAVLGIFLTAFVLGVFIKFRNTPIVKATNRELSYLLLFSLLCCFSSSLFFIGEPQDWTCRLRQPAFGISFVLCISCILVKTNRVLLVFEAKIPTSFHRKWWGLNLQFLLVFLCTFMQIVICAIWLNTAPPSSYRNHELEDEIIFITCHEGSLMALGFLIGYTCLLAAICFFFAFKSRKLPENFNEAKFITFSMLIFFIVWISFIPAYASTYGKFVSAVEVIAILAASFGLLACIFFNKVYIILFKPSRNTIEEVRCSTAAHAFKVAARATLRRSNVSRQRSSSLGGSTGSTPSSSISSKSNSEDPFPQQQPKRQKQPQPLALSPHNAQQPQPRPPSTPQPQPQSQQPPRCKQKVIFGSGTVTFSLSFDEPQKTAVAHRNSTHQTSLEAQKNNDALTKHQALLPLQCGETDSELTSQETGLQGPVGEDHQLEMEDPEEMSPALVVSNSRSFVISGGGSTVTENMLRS
# [3] = biological target: T2, parathyroid cell Ca^2+ receptor (Homo sapiens, UniProt P41180); experiment: [Ca2+]i (fura-2) in human parathyroid cells; format: cell-based; design: increase in [Ca2+]i: dose or concentration left out as unconfirmed
# T2 construct: Dissociated parathyroid cells were prepared from a parathyroid adenoma obtained by surgery from a patient with primary hyperparathyroidism; endogenous in cells; host or cells: primary human parathyroid cells from adenomatous or hyperplastic glands
# T2 sequence (P41180 20-1078): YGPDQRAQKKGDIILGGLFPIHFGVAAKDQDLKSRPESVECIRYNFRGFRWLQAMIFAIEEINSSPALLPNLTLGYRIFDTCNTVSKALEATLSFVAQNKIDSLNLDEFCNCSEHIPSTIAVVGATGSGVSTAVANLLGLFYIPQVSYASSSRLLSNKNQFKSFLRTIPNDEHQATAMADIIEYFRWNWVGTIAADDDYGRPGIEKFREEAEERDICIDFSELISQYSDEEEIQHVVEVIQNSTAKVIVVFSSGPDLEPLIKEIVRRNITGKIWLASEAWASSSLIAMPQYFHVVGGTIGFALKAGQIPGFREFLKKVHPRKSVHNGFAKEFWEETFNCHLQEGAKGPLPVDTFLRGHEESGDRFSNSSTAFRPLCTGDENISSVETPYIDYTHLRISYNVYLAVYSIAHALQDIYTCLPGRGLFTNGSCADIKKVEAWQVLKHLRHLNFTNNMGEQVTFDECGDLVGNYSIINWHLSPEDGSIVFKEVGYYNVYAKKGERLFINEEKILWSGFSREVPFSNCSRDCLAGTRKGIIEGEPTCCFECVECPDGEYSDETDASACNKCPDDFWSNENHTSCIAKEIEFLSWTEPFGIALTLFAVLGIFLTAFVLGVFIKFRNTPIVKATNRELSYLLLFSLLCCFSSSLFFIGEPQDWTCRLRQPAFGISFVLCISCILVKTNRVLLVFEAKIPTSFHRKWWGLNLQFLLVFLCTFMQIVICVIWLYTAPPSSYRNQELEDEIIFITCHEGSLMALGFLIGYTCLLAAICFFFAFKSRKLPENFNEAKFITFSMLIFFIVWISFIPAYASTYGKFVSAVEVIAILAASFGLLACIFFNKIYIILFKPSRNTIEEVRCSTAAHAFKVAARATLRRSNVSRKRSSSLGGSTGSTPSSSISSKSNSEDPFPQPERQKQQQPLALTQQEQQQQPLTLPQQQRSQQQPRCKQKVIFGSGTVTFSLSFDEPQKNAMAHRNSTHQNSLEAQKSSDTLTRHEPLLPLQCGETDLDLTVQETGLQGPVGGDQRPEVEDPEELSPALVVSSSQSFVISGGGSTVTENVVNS
# Protocol: Human parathyroid glands, obtained from patients undergoing surgical removal of parathyroid tissue for primary or uremic hyperparathyroidism (HPT), were treated similarly to bovine tissue. Glands were trimmed of excess fat and connective tissue and then minced with a fine scissors into approximate cubes of 2-3 mm. Dissociated parathyroid cells were prepared by collagenase digestion. Dissociated cells were then purified by centrifugation in Percoll buffer. The resultant parathyroid cell preparation was essentially devoid of red blood cells, adipocytes, and capillary tissue as assessed by phase contrast microscopy and Sudan black B staining. Dissociated and purified parathyroid cells were present as small clusters containing 5 to 20 cells.
# The cells were then pelleted, resuspended in the same buffer lacking the ester, and incubated a further 15 min at 37°C. The cells were subsequently washed twice with PCB containing 0.5 mM CaCl2 and 0.5% BSA and maintained at room temperature (about 20°C). Immediately before use, the cells were diluted five-fold with prewarmed 0.5 mM CaCl2-PCB to obtain a final BSA concentration of 0.1%. The concentration of cells in the cuvette used for fluorescence recording was 1-2 x 10^6/ml.
# The fluorescence of indicator-loaded cells was measured at 37°C in a spectrofluorimeter (Biomedical Instrumentation Group, University of Pennsylvania, Philadelphia, PA) equipped with a thermostated cuvette holder-and magnetic stirrer using excitation and emission wavelengths of 340 and 510 nm, respectively. […] Leakage of dye is dependent on temperature and most occurs within the first 2 min after warming the cells in the cuvette; dye leakage increases only very slowly thereafter. To correct the calibration for dye leakage, cells were placed in the cuvette and stirred at 37°C for 2-3 min. The cell suspension was then removed, the cells pelleted, and the supernatant returned to a clean cuvette. […] This estimate was subtracted from the apparent Fmin.
structure (smiles),measurement,setting,value
NC[C@@H]1O[C@H](O[C@H]2[C@@H](O)[C@H](O[C@@H]3[C@@H](O)[C@H](N)C[C@H](N)[C@H]3O[C@H]3O[C@H](CN)[C@@H](O)[C@H](O)[C@H]3N)O[C@@H]2CO)[C@H](N)[C@@H](O)[C@@H]1O [neomycin B],effect on basal [Ca2+]i,[1]; 5 mM,without effect on basal [Ca^2+]i
same,effect on the response to subsequent extracellular Ca2+ (25 mM),"[1]; neomycin 10 mM, spermine 20 mM, verapamil 100 µM",did not block
same,increase in [Ca2+]i in rat osteoclasts,"[1]; neomycin 10 mM, spermine 10 or 20 mM",Neither neomycin (10 mM) nor spermine (10 or 20 mM) caused increases in [Ca^2+]i
same,increase in [Ca2+]i in osteoclasts,"[1]; neomycin B 1 mM, spermine 1 or 5 mM, Fig. 23",failed to evoke any increase in [Ca^2+]i
same,increase in [Ca2+]i in osteoclasts,"[1]; screening, small responses were detected",none of these caused any large increase in [Ca^2+]i
same,[Ca2+]i response in Ca2+-free buffer,"[2]; 100 µM neomycin (maximally effective), absence of extracellular Ca2+",rapid and transient increase in [Ca^2+]i
same,[Ca2+]i response in Ca2+-free buffer,"[2]; 10 àM neomycin alone (submaximal), Ca2+-free buffer",did not by itself cause an increase in [Ca^2+]i
same,pattern of change in [Ca2+]i,"[3]; human parathyroid cells from adenomatous tissue, Fig. 19",not only a transient but additionally a steady-state increase in [Ca^2+]i
same,increase in [Ca2+]i,[3]; tested,large increase in [Ca^2+]i

# From EP0637237B1, “CALCIUM RECEPTOR-ACTIVE MOLECULES” (BRIGHAM AND WOMEN'S HOSPITAL, INC., priority 1993, dated 1994)
